Values joined by “and” are separate entries in the source; they are usually repeats but may differ in a detail not shown here. Identical values can stand only once. Values belong to the molecule of their own block, whether it stands above or below them.
Tested on: 349418-098-R-PDC spheroids, viability, % test/control
Test: Anticancer human tumor 349418-098-R-PDC patient-derived lung adenocarcinoma cell line growth inhibition [IpAb]
Conditions: spheroids with HUVEC and MSC; for viability, T/C: stronger effect = lower value
In short: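 Multi-cell spheroids of 60% tumour cells, 25% HUVEC and 15% MSC in ultra-low-attachment U-bottom wells, treated with agents combined with ipatasertib or abemaciclib. Half-log ranges top out near clinical Cmax, or 10 microM when Cmax is unknown.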

[1] = curve of first compound, second compound 0.1 µM
[2] = curve of first compound, second compound 0.316 µM
[3] = curve of first compound, second compound 1 µM
[4] = second compound 0.1 µM, first compound 0.00949 µM
[5] = second compound 0.1 µM, first compound 0.03 µM
[6] = second compound 0.1 µM, first compound 0.0949 µM
[7] = second compound 0.1 µM, first compound 0.3 µM
[8] = second compound 0.1 µM, first compound 0.949 µM
[9] = second compound 0.1 µM, first compound 3 µM
[10] = second compound 0.316 µM, first compound 0.00949 µM
[11] = second compound 0.316 µM, first compound 0.03 µM
[12] = second compound 0.316 µM, first compound 0.0949 µM
[13] = second compound 0.316 µM, first compound 0.3 µM
[14] = second compound 0.316 µM, first compound 0.949 µM
[15] = second compound 0.316 µM, first compound 3 µM
[16] = second compound 1 µM, first compound 0.00949 µM
[17] = second compound 1 µM, first compound 0.03 µM
[18] = second compound 1 µM, first compound 0.0949 µM
[19] = second compound 1 µM, first compound 0.3 µM
[20] = second compound 1 µM, first compound 0.949 µM
[21] = second compound 1 µM, first compound 3 µM
[22] = curve of first compound, second compound 0.01 µM
[23] = curve of first compound, second compound 0.0316 µM
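Note: spheroids exposed to compounds for 7 days.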

SMILES: CC(C)(C)c1cnc(CSc2cnc(NC(=O)C3CCNCC3)s2)o1 + CC(C)NCC(C(=O)N1CCN(c2ncnc3c2C(C)CC3O)CC1)c1ccc(Cl)cc1
- IC50 [1]: 0.0406 µM
- IC50 [2]: < 0.00949 µM
- IC50 [3]: < 0.00949 µM
- IC50 (curve of first compound, second compound 3.16 µM): < 0.00949 µM
- IC50 (curve of first compound, second compound 10 µM): < 0.00949 µM
- viability, T/C [4]: 88.9%
- viability, T/C [5]: 65.3%
- viability, T/C [6]: 6.84%
- viability, T/C [7]: 2.85%
- viability, T/C [8]: 2.98%
- viability, T/C [9]: 2.15%
- viability, T/C [10]: 45.6%
- viability, T/C [11]: 31.9%
- viability, T/C [12]: 5.43%
- viability, T/C [13]: 2.19%
- viability, T/C [14]: 2.77%
- viability, T/C [15]: 1.75%
- viability, T/C [16]: 22.1%
- viability, T/C [17]: 15.5%
- viability, T/C [18]: 3.25%
- viability, T/C [19]: 2.27%
- viability, T/C [20]: 2.58%
- viability, T/C [21]: 2.1%
- viability, T/C (second compound 3.16 µM, first compound 0.00949 µM): 9.45%
- viability, T/C (second compound 3.16 µM, first compound 0.03 µM): 8.27%
- viability, T/C (second compound 3.16 µM, first compound 0.0949 µM): 3.2%
- viability, T/C (second compound 3.16 µM, first compound 0.3 µM): 2.2%
- viability, T/C (second compound 3.16 µM, first compound 0.949 µM): 2.72%
- viability, T/C (second compound 3.16 µM, first compound 3 µM): 2.4%
- viability, T/C (second compound 10 µM, first compound 0.00949 µM): 5.95%
- viability, T/C (second compound 10 µM, first compound 0.03 µM): 5.37%
- viability, T/C (second compound 10 µM, first compound 0.0949 µM): 2.11%
- viability, T/C (second compound 10 µM, first compound 0.3 µM): 1.93%
- viability, T/C (second compound 10 µM, first compound 0.949 µM): 2.03%
- viability, T/C (second compound 10 µM, first compound 3 µM): 1.53%

SMILES: Cn1nccc1Nc1nccc(-c2ccn(C(CO)c3ccc(Cl)c(F)c3)c(=O)c2)n1 (configuration not stated) + CCN1CCN(Cc2ccc(Nc3ncc(F)c(-c4cc(F)c5nc(C)n(C(C)C)c5c4)n3)nc2)CC1
- IC50 [22]: < 0.0316 µM
- IC50 [23]: < 0.0316 µM
- IC50 [1]: < 0.0316 µM
- IC50 [2]: < 0.0316 µM
- IC50 [3]: < 0.0316 µM
- viability, T/C (second compound 0.01 µM, first compound 0.0316 µM): 34.3%
- viability, T/C (second compound 0.01 µM, first compound 0.1 µM): 31.1%
- viability, T/C (second compound 0.01 µM, first compound 0.316 µM): 28.1%
- viability, T/C (second compound 0.01 µM, first compound 1 µM): 27.3%
- viability, T/C (second compound 0.01 µM, first compound 3.16 µM): 23.5%
- viability, T/C (second compound 0.01 µM, first compound 10 µM): 19.9%
- viability, T/C (second compound 0.0316 µM, first compound 0.0316 µM): 21.5%
- viability, T/C (second compound 0.0316 µM, first compound 0.1 µM): 23%
- viability, T/C (second compound 0.0316 µM, first compound 0.316 µM): 18.6%
- viability, T/C (second compound 0.0316 µM, first compound 1 µM): 18%
- viability, T/C (second compound 0.0316 µM, first compound 3.16 µM): 17.1%
- viability, T/C (second compound 0.0316 µM, first compound 10 µM): 16.3%
- viability, T/C (second compound 0.1 µM, first compound 0.0316 µM): 13.1%
- viability, T/C (second compound 0.1 µM, first compound 0.1 µM): 13.4%
- viability, T/C (second compound 0.1 µM, first compound 0.316 µM): 13.2%
- viability, T/C (second compound 0.1 µM, first compound 1 µM): 12.7%
- viability, T/C (second compound 0.1 µM, first compound 3.16 µM): 13.3%
- viability, T/C (second compound 0.1 µM, first compound 10 µM): 13.5%
- viability, T/C (second compound 0.316 µM, first compound 0.0316 µM): 11.6%
- viability, T/C (second compound 0.316 µM, first compound 0.1 µM): 11.1%
- viability, T/C (second compound 0.316 µM, first compound 0.316 µM): 11.2%
- viability, T/C (second compound 0.316 µM, first compound 1 µM): 10.8%
- viability, T/C (second compound 0.316 µM, first compound 3.16 µM): 13%
- viability, T/C (second compound 0.316 µM, first compound 10 µM): 13.2%
- viability, T/C (second compound 1 µM, first compound 0.0316 µM): 12.7%
- viability, T/C (second compound 1 µM, first compound 0.1 µM): 10.4%
- viability, T/C (second compound 1 µM, first compound 0.316 µM): 11.1%
- viability, T/C (second compound 1 µM, first compound 1 µM): 11.7%
- viability, T/C (second compound 1 µM, first compound 3.16 µM): 12.5%
- viability, T/C (second compound 1 µM, first compound 10 µM): 12.2%

SMILES: Cn1cnc2c(F)c(Nc3ccc(Br)cc3Cl)c(C(=O)NOCCO)cc21 + CCN1CCN(Cc2ccc(Nc3ncc(F)c(-c4cc(F)c5nc(C)n(C(C)C)c5c4)n3)nc2)CC1
- IC50 [22]: < 0.00949 µM
- IC50 [23]: < 0.00949 µM
- IC50 [1]: < 0.00949 µM
- IC50 [2]: < 0.00949 µM
- IC50 [3]: < 0.00949 µM
- viability, T/C (second compound 0.01 µM, first compound 0.00949 µM): 41.1%
- viability, T/C (second compound 0.01 µM, first compound 0.03 µM): 33.9%
- viability, T/C (second compound 0.01 µM, first compound 0.0949 µM): 27.2%
- viability, T/C (second compound 0.01 µM, first compound 0.3 µM): 28.7%
- viability, T/C (second compound 0.01 µM, first compound 0.949 µM): 17.3%
- viability, T/C (second compound 0.01 µM, first compound 3 µM): 8.8%
- viability, T/C (second compound 0.0316 µM, first compound 0.00949 µM): 26.7%
- viability, T/C (second compound 0.0316 µM, first compound 0.03 µM): 21.7%
- viability, T/C (second compound 0.0316 µM, first compound 0.0949 µM): 18.9%
- viability, T/C (second compound 0.0316 µM, first compound 0.3 µM): 17.9%
- viability, T/C (second compound 0.0316 µM, first compound 0.949 µM): 12.1%
- viability, T/C (second compound 0.0316 µM, first compound 3 µM): 7.93%
- viability, T/C [4]: 15.1%
- viability, T/C [5]: 14.7%
- viability, T/C [6]: 12%
- viability, T/C [7]: 11.2%
- viability, T/C [8]: 9.1%
- viability, T/C [9]: 6.69%
- viability, T/C [10]: 12.1%
- viability, T/C [11]: 11.2%
- viability, T/C [12]: 10.1%
- viability, T/C [13]: 9.23%
- viability, T/C [14]: 8.49%
- viability, T/C [15]: 7.04%
- viability, T/C [16]: 9.97%
- viability, T/C [17]: 10.1%
- viability, T/C [18]: 10.6%
- viability, T/C [19]: 8.23%
- viability, T/C [20]: 8.1%
- viability, T/C [21]: 6.68%

- IC50 (curve of compound): 0.0144 µM and 0.0182 µM
SMILES: CC(=O)c1c(C)c2cnc(Nc3ccc(N4CCNCC4)cn3)nc2n(C2CCCC2)c1=O
- viability, T/C (compound 0.000949 µM): 97.3% and 86.4%
- viability, T/C (compound 0.003 µM): 82.9% and 78.7%
- viability, T/C (compound 0.00949 µM): 61.7%
- viability, T/C (compound 0.03 µM): 30.8% and 42.2%
- viability, T/C (compound 0.0949 µM): 24.5% and 21.1%
- viability, T/C (compound 0.3 µM): 16.8% and 16.9%

Source: PubChem BioAssay AID2060340 (Molecular Pharmacology Branch, DTP, NCI, 2025)
